From patent US4591604A, “Method of inhibiting the complement system by administering multisulfonated naphthalene ureas” (American Cyanamid Company, priority 1984, dated 1986)
Structures can show the parent of a compound that is named as a salt.

Key:
[1] = molecular target: activated human C1 (Homo sapiens, UniProt P09871); assay: Test Code 026 (C1 inhibitor); assay type: biochemical; settings: serial twofold dilution assay; higher well number indicates higher activity
[2] = system: serum complement activity; assay: Guinea Pig Intraperitoneal Test (GPIP); assay type: in vivo; settings: 200 mg/kg i.p.; for In vivo Activity Guinea Pigs Intraperitoneal % Lowering, 30 minutes: blood sample 30 minutes after injection; for In vivo Activity Guinea Pigs Intraperitoneal % Lowering, 60 minutes: blood sample 60 minutes after injection; for In vivo Activity Guinea Pigs Intraperitoneal % Lowering, 120 minutes: blood sample 120 minutes after injection
Description: (§1) An active inhibitor protects C2 from C1 and C4; (ii) Test Code 036 (C-Shunt inhibitor)--In this test human erythrocytes rendered fragile are lysed in autologous serum via the shunt pathway activated by cobra venom factor in the presence of appropriate dilutions of the test compound. Inhibition of the shunt pathway results in failure of lysis; (iii) Cap 50 Test--Here, appropriate amounts of the test compound are added to a pool of guinea pig serum in vitro, after which the complement level is determined in undiluted serum by the serum capillary tube assay of U.S. Pat. No. 3,876,376. The concentration of compound inhibiting 50% is reported; and (iv) Guinea Pig Intraperitoneal Test (GPIP)--Guinea pigs weighing about 300 g are dosed intraperitoneally (i.p.) with 200 mg/kg of the test compound dissolved in saline and adjusted to pH 7-8. Approximately 0.4 ml blood samples, taken by orbital sinus puncture 30 minutes and one hour after injections, are collected directly into centrifuge tubes; 5 ml blood samples, taken by decapitation 2 hours after injection, are collected directly into diSPo® beakers. The samples were allowed to clot, centrifuged, and the resultant sera were assayed for complement activity using the capillary complement assay. Percent inhibition is calculated by comparison with simultaneous controls. The results of the GPIP appear in Table I together with results of Test Code 026, 036 and Cap 50.

[3] = system: shunt pathway activated by cobra venom factor (lysis of human erythrocytes in autologous serum); assay: Test Code 036 (C-Shunt inhibitor); assay type: cell-based; settings: serial twofold dilution assay; higher well number indicates higher activity
Description: as §1, with “The results of the GPIP appear in Table I together with results of Test Code 026, 036 and Cap 50.” left out

[4] = system: complement system; settings: reported in the literature; cited from earlier work
[5] = system: hereditary angioneurotic edema; settings: reported in the literature; cited from earlier work
[6] = system: human serum complement; settings: in vitro and in vivo, judged by reduction in total hemolytic complement activity; cited from earlier work

Compound: O=C(Nc1cc2c(O)cc(S(=O)(=O)[O-])cc2cc1S(=O)(=O)[O-])Nc1cc2c(O)cc(S(=O)(=O)[O-])cc2cc1S(=O)(=O)[O-].[Na+].[Na+].[Na+].[Na+] [3,3'-Ureylenebis(5-hydroxy-2,7-naphthalenedisulfonic acid), tetrasodium salt]
- C1 026 Wells [1]: +4 Wells
- In vivo Activity Guinea Pigs Intraperitoneal % Lowering, 30 minutes [2]: 4%
- In vivo Activity Guinea Pigs Intraperitoneal % Lowering, 60 minutes [2]: 1%
- In vivo Activity Guinea Pigs Intraperitoneal % Lowering, 120 minutes [2]: 28%

Compound: O=C(Nc1cc(S(=O)(=O)[O-])c2cc([N+](=O)[O-])cc(S(=O)(=O)[O-])c2c1)Nc1cc(S(=O)(=O)[O-])c2cc([N+](=O)[O-])cc(S(=O)(=O)[O-])c2c1.[Na+].[Na+].[Na+].[Na+] [3,3'-Ureylenebis(7-nitro-1,5-naphthalenedisulfonic acid), tetrasodium salt]
- C1 026 Wells [1]: +3 Wells

Compound: O=C(Nc1cc2ccc(S(=O)(=O)[O-])cc2cc1S(=O)(=O)[O-])Nc1cc2ccc(S(=O)(=O)[O-])cc2cc1S(=O)(=O)[O-].[Na+].[Na+].[Na+].[Na+] [3,3'-Ureylenedi-2,7-naphthalenedisulfonic acid, tetrasodium salt]
- C1 026 Wells [1]: +3 Wells

Compound: O=C(Nc1cc(S(=O)(=O)O)cc2cc(S(=O)(=O)O)cc(OS(=O)(=O)c3ccccc3)c12)Nc1cc(S(=O)(=O)O)cc2cc(S(=O)(=O)O)cc(OS(=O)(=O)c3ccccc3)c12 [4,4'-Ureylenebis(5-hydroxy-2,7-naphthalenedisulfonic acid), tetrasodium salt dibenzenesulfonate]
- C1 026 Wells [1]: +3 Wells

Compound: O=C(Nc1ccc(S(=O)(=O)[O-])c2ccc(S(=O)(=O)[O-])cc12)Nc1ccc(S(=O)(=O)[O-])c2ccc(S(=O)(=O)[O-])cc12.[Na+].[Na+].[Na+].[Na+] [4,4'-Ureylenedi-1,6-naphthalenedisulfonic acid, tetrasodium salt]
- C1 026 Wells [1]: +3 Wells

Compound: O=C(Nc1ccc(S(=O)(=O)[O-])c2ccccc12)Nc1ccc(S(=O)(=O)[O-])c2ccccc12.[Na+].[Na+] [4,4'-Ureylenedi-1-naphthalenesulfonic acid, disodium salt]
- C1 026 Wells [1]: +2 Wells

Compound: O=C(Nc1cc(S(=O)(=O)[O-])cc2ccc(S(=O)(=O)[O-])cc12)Nc1cc(S(=O)(=O)[O-])cc2ccc(S(=O)(=O)[O-])cc12.[Na+].[Na+].[Na+].[Na+] [4,4'-Ureylenedi-2,6-naphthalenedisulfonic acid, tetrasodium salt]
- C1 026 Wells [1]: +2 Wells

Compound: O=C(Nc1cc(S(=O)(=O)[O-])cc2cc(S(=O)(=O)[O-])ccc12)Nc1cc(S(=O)(=O)[O-])cc2cc(S(=O)(=O)[O-])ccc12.[Na+].[Na+].[Na+].[Na+] [4,4'-Ureylenedi-2,7-naphthalenedisulfonic acid, tetrasodium salt]
- C1 026 Wells [1]: +3 Wells

Compound: O=C(Nc1ccc2c(S(=O)(=O)[O-])cc(S(=O)(=O)[O-])cc2c1)Nc1ccc2c(S(=O)(=O)[O-])cc(S(=O)(=O)[O-])cc2c1.[Na+].[Na+].[Na+].[Na+] [6,6'-Ureylenedi-1,3-naphthalenedisulfonic acid, tetrasodium salt]
- C1 026 Wells [1]: +3 Wells

Compound: O=C(Nc1ccc2c(O)cc(S(=O)(=O)O)cc2c1)Nc1ccc2c(O)cc(S(=O)(=O)O)cc2c1 [6,6'-ureylenebis(1-hydroxy-3-naphthalenesulfonic acid)]
- C1 026 Wells [1]: +1 Wells

Compound: O=C(Nc1cc(S(=O)(=O)[O-])c2cc(S(=O)(=O)[O-])cc(S(=O)(=O)[O-])c2c1)Nc1cc(S(=O)(=O)[O-])c2cc(S(=O)(=O)[O-])cc(S(=O)(=O)[O-])c2c1.[Na+].[Na+].[Na+].[Na+].[Na+].[Na+] [7,7'-Ureylenedi-1,3,5-naphthalenetrisulfonic acid, hexasodium salt]
- C1 026 Wells [1]: +6 Wells
- C-Shunt Inhibition 036 Wells [3]: +1 Wells

Compound: O=C(Nc1ccc2cc(S(=O)(=O)O)cc(O)c2c1)Nc1ccc2cc(S(=O)(=O)O)cc(O)c2c1 [7,7'-ureylenebis(1-hydroxy-3-naphthalenesulfonic acid)]
- C1 026 Wells [1]: +2 Wells

Compound: O=S(=O)([O-])c1cc(NC(=S)Nc2cc(S(=O)(=O)[O-])cc3cc(S(=O)(=O)[O-])cc(S(=O)(=O)[O-])c23)c2c(S(=O)(=O)[O-])cc(S(=O)(=O)[O-])cc2c1.[Na+].[Na+].[Na+].[Na+].[Na+].[Na+] [8,8'-(2-Thioureylene)di-1,3,6-naphthalenetrisulfonic acid, hexasodium salt]
- C1 026 Wells [1]: +5 Wells
- In vivo Activity Guinea Pigs Intraperitoneal % Lowering, 30 minutes [2]: 41%
- In vivo Activity Guinea Pigs Intraperitoneal % Lowering, 60 minutes [2]: 20%
- In vivo Activity Guinea Pigs Intraperitoneal % Lowering, 120 minutes [2]: 42%

Compound: O=C(Nc1ccc(S(=O)(=O)[O-])c2cc(S(=O)(=O)[O-])cc(S(=O)(=O)[O-])c12)Nc1ccc(S(=O)(=O)[O-])c2cc(S(=O)(=O)[O-])cc(S(=O)(=O)[O-])c12.[Na+].[Na+].[Na+].[Na+].[Na+].[Na+] [8,8'-Ureylenedi-1,3,5-naphthalenetrisulfonic acid, hexasodium salt]
- In vivo Activity Guinea Pigs Intraperitoneal % Lowering, 30 minutes [2]: 92%
- In vivo Activity Guinea Pigs Intraperitoneal % Lowering, 60 minutes [2]: 92%
- In vivo Activity Guinea Pigs Intraperitoneal % Lowering, 120 minutes [2]: 94%

Compound: O=C(Nc1cc(S(=O)(=O)[O-])cc2cc(S(=O)(=O)[O-])cc(S(=O)(=O)[O-])c12)Nc1cc(S(=O)(=O)[O-])cc2cc(S(=O)(=O)[O-])cc(S(=O)(=O)[O-])c12.[Na+].[Na+].[Na+].[Na+].[Na+].[Na+] [8,8'-Ureylenedi-1,3,6-naphthalenetrisulfonic acid, hexasodium salt]
- C1 026 Wells [1]: +5 Wells
- In vivo Activity Guinea Pigs Intraperitoneal % Lowering, 30 minutes [2]: 25%
- In vivo Activity Guinea Pigs Intraperitoneal % Lowering, 60 minutes [2]: 61%
- In vivo Activity Guinea Pigs Intraperitoneal % Lowering, 120 minutes [2]: 65%

Compound: O=C(Nc1cc(S(=O)(=O)[O-])cc2cccc(S(=O)(=O)[O-])c12)Nc1cc(S(=O)(=O)[O-])cc2cccc(S(=O)(=O)[O-])c12.[Na+].[Na+].[Na+].[Na+] [8,8'-Ureylenedi-1,6-naphthalenedisulfonic acid, tetrasodium salt]
- C1 026 Wells [1]: +3 Wells

Compound: Nc1ccc2cc(S(=O)(=O)[O-])cc(O)c2c1N=Nc1ccc(NC(=O)Nc2ccc(N=Nc3c(N)ccc4cc(S(=O)(=O)[O-])cc(O)c34)c(S(=O)(=O)[O-])c2)cc1S(=O)(=O)[O-].[Na+].[Na+].[Na+].[Na+] [chlorazol fast pink, 3,3'-ureylenebis[6-(2-amino-8-hydroxy-6-sulfo-1-naphthylazo)benzenesulfonic acid], tetrasodium salt]
- anti-complementary effect [4]: anti-complementary effect

Compound: NCCCCCC(=O)O [epsilon-aminocaproic acid]
- success in the treatment of hereditary angioneurotic edema [5]: used with success

Compound: NC[C@H]1CC[C@H](C(=O)O)CC1 [tranexamic acid]
- success in the treatment of hereditary angioneurotic edema [5]: used with success

Compound: heparin
- anti-complementary effect [4]: anti-complementary effect

Compound: pentosanpolysulfoester
- anticomplementary activity on human serum [6]: anticomplementary activity
